Results: paper PMC3793924, “Targeting Androgen Receptor/Src Complex Impairs the Aggressive Phenotype of Human Fibrosarcoma Cells” (PLoS ONE, 2013)

Experiments:
HT1080 cells [1] = assay: BrdU incorporation (DNA synthesis) in quiescent HT1080 cells; format: cell-based, human; settings: 18 h, R1881 and DHT 10 nM, EGF 100 ng/ml
Method: Human fibrosarcoma HT1080 cells were used. In A, quiescent cells on coverslips were left un-stimulated or stimulated for 18 h with the indicated compounds. […] After in vivo pulse with BrdU (100 μM; Sigma), BrdU incorporation was analyzed by IF and expressed as % of total nuclei. Several independent experiments were performed in duplicate and the results were derived from at least 400 scored cells for each coverslip. Mean and SEM are shown. n represents the number of experiments. […] In B, xenografts were established in nude male mice as described in Methods. On alternate days, animals were intra-peritoneally injected with vehicle alone (vehicle), or the pure androgen antagonist Casodex (Cx: 0.1 μg/mice; 4µg/Kg body weight), or DHT (DHT: 0,1 μg/mice; 3 μg/Kg body weight) alone. Volumes of HT1080 cell xenografts were measured at the indicated times in two dimensions by a caliper and expressed as tumor mass (mm^3). Mean and SEM are shown. n represents the number of experiments.
Quiescent HT1080 cells were used. […] Casodex (at 10 μM) was used for comparison with the S1 peptide. Upper section in A, Western blot of HT1080 cell lysates with anti-EGFR antibody. […] In B, lysates were immune-precipitated with the anti-Src MAb and Src activity in immune complexes was assayed using acidified enolase, as a substrate. In C, cells on coverslips were left untreated or treated for 18 h with the indicated compounds. After in vivo pulse with BrdU (100 μM), BrdU incorporation was analyzed by IF and expressed as % of total nuclei. Several independent experiments were performed in duplicate and the results were obtained from at least 500 scored cells for each coverslip. Mean and SEM are shown. n represents the number of experiments.

HT1080 cells [2] = assay: Trans-well migration/invasiveness of HT1080 cells; format: cell-based, human; settings: HT1080 cells, 10 nM R1881, 6 h, collagen pre-coated Trans-well filters
NIH3T3 cells = assay: BrdU incorporation in NIH3T3 fibroblasts; format: cell-based, mouse; settings: quiescent NIH3T3 cells, 18 h; EGF 100 ng/ml; R1881 10 nM
Method: NIH3T3 cells were used. In A, cells were transfected with 3416 or 3424 ARE-Luc constructs with or without hAR-expressing plasmid and then made quiescent as reported in Methods. Cells were left unstimulated or stimulated for 18 h with 10 nM R1881. Luciferase activity was assayed, normalized using beta-gal as an internal control, and expressed as fold induction. Three independent experiments were performed in triplicate. Means and SEM are shown; n represents the number of experiments. […] After in vivo labeling with BrdU (100 μM), BrdU incorporation was analyzed by IF and expressed as % of total cells. Several independent experiments were performed in duplicate and data derived from at least 700 scored cells for each coverslip. Mean and SEM are shown. n represents the number of experiments. […] Quiescent NIH3T3 fibroblasts were used. In C, cells on coverslips were left unstimulated or stimulated for 18 h with the indicated compounds. […] After in vivo pulse with BrdU (100 μM), BrdU incorporation was analyzed by IF and expressed as % of total cells. Several independent experiments were performed in duplicate and the results were derived from at least 500 scored cells for each coverslip. Mean and SEM are shown. n represents the number of experiments. […] The Western blot of MCF-7 cell lysate with the anti-tubulin or the anti-EGFR antibody is shown for comparison. In D, cells were left untreated or treated for 6 h with the indicated compounds. […] Cells were allowed to migrate in collagen pre-coated Trans-well filters. Migrated cells were stained and counted as reported in Methods. Results were derived from several independent experiments, each performed in duplicate. Data are expressed as relative increase. Mean and SEM are shown. n represents the number of experiments. […] (PPTX) Click here for additional data file.

HT1080 cell xenografts = HT1080 cell xenografts in nude male mice, tumor mass; format: in vivo; settings: i.p. on alternate days for 4 weeks, Casodex 0.1 μg/mice (4 µg/Kg), DHT 0,1 μg/mice (3 μg/Kg), six animals per group
Method: Figure 1 Casodex inhibits the EGF-triggered DNA synthesis in human fibrosarcoma HT1080 cells and reduces the growth of HT1080 xenografts. Human fibrosarcoma HT1080 cells were used. In A, quiescent cells on coverslips were left un-stimulated or stimulated for 18 h with the indicated compounds. […] After in vivo pulse with BrdU (100 μM; Sigma), BrdU incorporation was analyzed by IF and expressed as % of total nuclei. Several independent experiments were performed in duplicate and the results were derived from at least 400 scored cells for each coverslip. Mean and SEM are shown. n represents the number of experiments. (**) p value< 0,001. […] In B, xenografts were established in nude male mice as described in Methods. […] Volumes of HT1080 cell xenografts were measured at the indicated times in two dimensions by a caliper and expressed as tumor mass (mm^3). […]
HT1080 cells in 50% (v/v) Matrigel solution in phosphate-buffered saline (PBS; pH 7.4) were subcutaneously injected in the dorsal posterior region at 2.5 x 10^6 cells/male athymic mice (CD mice, Charles-River Italia) without hormone priming. […] The tumor volumes of HT1080 cell xenografts were measured at indicated intervals in two dimensions by a caliper and expressed as tumor mass (mm^3). This is calculated according to the formula: a^2 × b × 0.5, where a is the width and b is the length of the tumor. […]

Structure (SMILES)	BrdU incorporation (DNA synthesis) upon stimulation with the compound alone (HT1080 cells [1])	Cell motility upon androgen challenge (Trans-well) (HT1080 cells [2])	BrdU incorporation (DNA synthesis) upon stimulation with the compound alone (NIH3T3 cells)	Growth of HT1080 xenografts (tumor mass) (HT1080 cell xenografts)
C[C@]1(O)CC[C@H]2[C@@H]3CCC4=CC(=O)CCC4=C3C=C[C@@]21C [R1881]	unable to mediate DNA synthesis	robustly increases cell motility	does not induce DNA synthesis	
C[C@]12CCC(=O)C[C@@H]1CC[C@@H]1[C@@H]2CC[C@]2(C)[C@@H](O)CC[C@@H]12 [DHT]	unable to mediate DNA synthesis			slightly affected this increase
